According to ChEMBL document CHEMBL5696442, “Discovery of type II inhibitors of TGFβ-activated kinase 1 (TAK1) and mitogen-activated protein kinase kinase kinase kinase 2 (MAP4K2)” (J Med Chem, 2015):

What was measured:
[1] = biological target: T1, Serine/threonine-protein kinase LATS1 (Homo sapiens) (UniProt O95835); assay: Inhibition of LATS1 Lys2 labeling site in human A-375 cells at 0.5 uM by KiNativ Profiling analysis relative to control; type: cell-based
T1 sequence (whole entry): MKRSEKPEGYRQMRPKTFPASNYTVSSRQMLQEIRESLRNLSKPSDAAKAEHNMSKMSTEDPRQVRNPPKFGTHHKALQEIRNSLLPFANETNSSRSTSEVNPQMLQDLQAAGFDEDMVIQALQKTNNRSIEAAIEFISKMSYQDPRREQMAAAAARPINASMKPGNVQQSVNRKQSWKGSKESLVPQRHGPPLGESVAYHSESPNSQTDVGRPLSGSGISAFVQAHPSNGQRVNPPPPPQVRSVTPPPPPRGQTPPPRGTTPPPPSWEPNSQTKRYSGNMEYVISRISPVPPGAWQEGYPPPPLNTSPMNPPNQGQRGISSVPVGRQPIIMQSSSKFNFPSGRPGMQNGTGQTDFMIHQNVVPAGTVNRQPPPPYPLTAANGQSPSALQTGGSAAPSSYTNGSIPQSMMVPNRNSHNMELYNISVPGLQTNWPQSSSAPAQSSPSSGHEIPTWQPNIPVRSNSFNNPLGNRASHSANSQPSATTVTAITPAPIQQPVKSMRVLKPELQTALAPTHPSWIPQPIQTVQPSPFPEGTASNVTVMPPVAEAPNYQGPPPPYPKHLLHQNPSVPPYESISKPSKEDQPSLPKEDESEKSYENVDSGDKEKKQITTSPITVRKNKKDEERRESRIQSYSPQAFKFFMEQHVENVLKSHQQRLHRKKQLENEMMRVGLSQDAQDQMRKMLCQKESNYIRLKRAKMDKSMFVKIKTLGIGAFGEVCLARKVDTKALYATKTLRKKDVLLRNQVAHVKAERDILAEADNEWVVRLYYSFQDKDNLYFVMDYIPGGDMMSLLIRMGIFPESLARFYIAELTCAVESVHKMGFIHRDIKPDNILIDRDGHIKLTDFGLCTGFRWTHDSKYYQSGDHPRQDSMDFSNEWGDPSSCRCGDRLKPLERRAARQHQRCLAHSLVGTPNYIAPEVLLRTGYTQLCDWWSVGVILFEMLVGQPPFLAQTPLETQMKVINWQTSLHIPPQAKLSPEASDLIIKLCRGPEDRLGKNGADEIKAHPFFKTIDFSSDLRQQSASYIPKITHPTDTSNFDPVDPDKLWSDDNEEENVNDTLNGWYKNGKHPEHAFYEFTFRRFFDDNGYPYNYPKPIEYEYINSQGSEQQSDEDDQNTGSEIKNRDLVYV

[2] = Inhibition of MARK2/3 K2 labeling site in human Huh-7 cells at 10 uM by KiNativ Profiling analysis relative to control; conditions: condition cancer
[3] = biological target: Mitogen-activated protein kinase kinase kinase 4 (Homo sapiens) (UniProt Q9Y6R4); assay: Inhibition of MAP3K4 Lys2 labeling site in human A-375 cells at 5 uM by KiNativ Profiling analysis relative to control; type: cell-based
[4] = biological target: Phosphatidylinositol 4-kinase beta (Homo sapiens) (UniProt Q9UBF8); assay: Inhibition of PIK4CB (unknown origin) at 1 uM by Ambit Kinomescan binding assay relative to control; values are per cent of control
[5] = biological target: T2, Serine/threonine-protein kinase D1 (Homo sapiens) (UniProt Q15139); assay: Inhibition of PKD1 Lys2 labeling site in human Huh-7 cells at 1 uM by KiNativ Profiling analysis relative to control; type: cell-based
T2 sequence (whole entry): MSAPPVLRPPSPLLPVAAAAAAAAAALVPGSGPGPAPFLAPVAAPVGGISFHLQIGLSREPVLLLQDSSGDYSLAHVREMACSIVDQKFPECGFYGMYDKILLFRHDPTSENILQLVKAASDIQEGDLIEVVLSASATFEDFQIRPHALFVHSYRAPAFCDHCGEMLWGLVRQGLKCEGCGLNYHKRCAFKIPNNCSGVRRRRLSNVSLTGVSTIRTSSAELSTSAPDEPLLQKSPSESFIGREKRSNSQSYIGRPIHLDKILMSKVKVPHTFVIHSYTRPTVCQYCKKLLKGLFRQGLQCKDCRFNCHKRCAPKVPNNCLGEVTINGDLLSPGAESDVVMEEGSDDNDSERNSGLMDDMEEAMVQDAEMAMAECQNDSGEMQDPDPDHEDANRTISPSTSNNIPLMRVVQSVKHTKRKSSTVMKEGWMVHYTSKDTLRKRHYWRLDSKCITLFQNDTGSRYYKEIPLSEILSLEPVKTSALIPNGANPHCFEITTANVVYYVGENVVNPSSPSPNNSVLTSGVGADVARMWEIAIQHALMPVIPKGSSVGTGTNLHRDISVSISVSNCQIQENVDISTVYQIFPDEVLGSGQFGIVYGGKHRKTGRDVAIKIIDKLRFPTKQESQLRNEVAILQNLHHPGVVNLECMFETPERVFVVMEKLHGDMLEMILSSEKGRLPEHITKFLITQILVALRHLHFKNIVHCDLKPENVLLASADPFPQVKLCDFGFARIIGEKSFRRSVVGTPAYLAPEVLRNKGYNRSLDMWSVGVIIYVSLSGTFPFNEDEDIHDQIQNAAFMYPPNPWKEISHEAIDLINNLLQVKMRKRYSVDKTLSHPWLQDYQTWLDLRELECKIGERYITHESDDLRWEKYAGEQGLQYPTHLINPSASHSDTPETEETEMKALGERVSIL

Mitogen-activated protein kinase kinase kinase 4 (Homo sapiens), sequence (Q9Y6R4 whole entry): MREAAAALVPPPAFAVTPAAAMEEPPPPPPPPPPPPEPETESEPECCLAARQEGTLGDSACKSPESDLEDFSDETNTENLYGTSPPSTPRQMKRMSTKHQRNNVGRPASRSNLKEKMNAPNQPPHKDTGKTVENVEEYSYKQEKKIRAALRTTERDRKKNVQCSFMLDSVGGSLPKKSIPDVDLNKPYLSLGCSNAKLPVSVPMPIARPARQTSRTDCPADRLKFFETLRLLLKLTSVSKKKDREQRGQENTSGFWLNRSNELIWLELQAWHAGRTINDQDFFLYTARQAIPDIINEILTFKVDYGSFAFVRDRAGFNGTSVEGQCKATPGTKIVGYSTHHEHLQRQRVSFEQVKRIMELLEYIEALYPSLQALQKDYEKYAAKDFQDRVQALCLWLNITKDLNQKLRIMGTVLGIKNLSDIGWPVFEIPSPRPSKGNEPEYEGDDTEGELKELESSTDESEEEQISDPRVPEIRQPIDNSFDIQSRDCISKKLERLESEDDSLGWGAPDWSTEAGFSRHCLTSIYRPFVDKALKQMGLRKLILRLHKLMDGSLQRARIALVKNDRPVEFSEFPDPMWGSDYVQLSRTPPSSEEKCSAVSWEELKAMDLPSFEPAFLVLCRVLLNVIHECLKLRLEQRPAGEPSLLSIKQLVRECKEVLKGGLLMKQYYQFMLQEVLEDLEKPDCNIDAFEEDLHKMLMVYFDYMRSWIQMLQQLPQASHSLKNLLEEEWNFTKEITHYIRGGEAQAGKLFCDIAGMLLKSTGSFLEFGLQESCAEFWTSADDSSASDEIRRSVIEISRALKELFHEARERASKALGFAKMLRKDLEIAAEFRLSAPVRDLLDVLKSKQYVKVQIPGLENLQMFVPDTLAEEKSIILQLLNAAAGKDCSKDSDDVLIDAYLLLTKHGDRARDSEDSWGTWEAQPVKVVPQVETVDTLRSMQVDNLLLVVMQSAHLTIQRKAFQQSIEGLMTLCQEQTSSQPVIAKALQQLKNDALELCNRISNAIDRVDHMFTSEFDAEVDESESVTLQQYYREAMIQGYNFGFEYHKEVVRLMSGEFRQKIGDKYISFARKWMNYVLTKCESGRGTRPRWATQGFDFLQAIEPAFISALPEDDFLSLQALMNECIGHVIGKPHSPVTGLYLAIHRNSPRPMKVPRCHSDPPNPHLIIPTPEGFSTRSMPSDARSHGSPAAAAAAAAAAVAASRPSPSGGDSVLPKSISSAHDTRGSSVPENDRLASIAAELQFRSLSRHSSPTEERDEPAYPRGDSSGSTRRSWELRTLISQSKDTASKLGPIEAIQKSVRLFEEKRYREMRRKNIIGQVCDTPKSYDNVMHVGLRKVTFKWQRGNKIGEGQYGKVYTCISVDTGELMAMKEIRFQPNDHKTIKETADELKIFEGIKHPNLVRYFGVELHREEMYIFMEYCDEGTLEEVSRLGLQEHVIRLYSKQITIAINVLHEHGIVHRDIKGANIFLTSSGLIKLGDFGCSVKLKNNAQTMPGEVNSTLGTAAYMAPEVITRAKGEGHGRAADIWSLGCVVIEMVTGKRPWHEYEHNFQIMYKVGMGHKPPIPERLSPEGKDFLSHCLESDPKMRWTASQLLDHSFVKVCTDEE
Phosphatidylinositol 4-kinase beta (Homo sapiens), sequence (Q9UBF8 2-816 limits assumed): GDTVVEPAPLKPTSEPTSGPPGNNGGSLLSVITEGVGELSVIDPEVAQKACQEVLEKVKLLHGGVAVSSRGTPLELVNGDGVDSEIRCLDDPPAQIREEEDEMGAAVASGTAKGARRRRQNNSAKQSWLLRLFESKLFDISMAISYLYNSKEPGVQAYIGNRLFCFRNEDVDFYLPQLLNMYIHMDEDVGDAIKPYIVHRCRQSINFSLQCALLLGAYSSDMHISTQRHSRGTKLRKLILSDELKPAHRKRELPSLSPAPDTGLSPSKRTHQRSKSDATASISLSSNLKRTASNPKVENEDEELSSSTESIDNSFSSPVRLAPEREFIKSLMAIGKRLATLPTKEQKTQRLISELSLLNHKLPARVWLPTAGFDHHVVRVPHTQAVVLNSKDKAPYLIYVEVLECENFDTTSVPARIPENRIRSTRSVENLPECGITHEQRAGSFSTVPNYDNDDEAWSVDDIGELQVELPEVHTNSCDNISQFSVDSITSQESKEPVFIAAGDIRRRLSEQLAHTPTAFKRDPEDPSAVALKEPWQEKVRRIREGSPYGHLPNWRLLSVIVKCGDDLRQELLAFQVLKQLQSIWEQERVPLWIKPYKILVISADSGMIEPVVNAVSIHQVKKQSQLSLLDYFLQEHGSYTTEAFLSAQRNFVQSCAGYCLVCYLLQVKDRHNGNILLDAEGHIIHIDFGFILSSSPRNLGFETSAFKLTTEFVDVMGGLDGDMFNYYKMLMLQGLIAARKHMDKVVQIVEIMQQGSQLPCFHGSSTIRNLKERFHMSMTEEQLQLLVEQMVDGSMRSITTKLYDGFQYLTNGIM

## CCN1CCN(Cc2ccc(NC(=O)c3ccc(C)c(Oc4ccnc5[nH]ccc45)c3)cc2C(F)(F)F)CC1
[1]
  inhibition: -1.1%
[2]
  inhibition at 10 µM: 11.8%

## CCN1CCN(Cc2ccc(NC(=O)c3ccc(C)c(/C=C/c4cnc5[nH]ccc5c4OC)c3)cc2C(F)(F)F)CC1
[3]
  inhibition: 14.2%
[4]
  residual activity: 100%

## CNc1cc(Oc2cc(C(=O)Nc3cc(N4CCN(C)CC4)cc(C(F)(F)F)c3)ccc2C)ncn1
[5]
  inhibition: 9%
